Legend:
recombinant TLK1B [1] = target: T1, recombinant TLK1B (Homo sapiens, UniProt Q9UKI8); test: TLK1B kinase assay with Nek1 peptide (ADP Hunter), inhibitor screening; assay type: biochemical; parameters: The full-length, 65 KDa recombinant human TLK1B (hTLK1B) for the in-vitro experiments was expressed and purified from bacteria; made in house; host or cells: bacteria; conditions: tested at 20 μM
T1 sequence (Q9UKI8 1-549 isoform Q9UKI8-3): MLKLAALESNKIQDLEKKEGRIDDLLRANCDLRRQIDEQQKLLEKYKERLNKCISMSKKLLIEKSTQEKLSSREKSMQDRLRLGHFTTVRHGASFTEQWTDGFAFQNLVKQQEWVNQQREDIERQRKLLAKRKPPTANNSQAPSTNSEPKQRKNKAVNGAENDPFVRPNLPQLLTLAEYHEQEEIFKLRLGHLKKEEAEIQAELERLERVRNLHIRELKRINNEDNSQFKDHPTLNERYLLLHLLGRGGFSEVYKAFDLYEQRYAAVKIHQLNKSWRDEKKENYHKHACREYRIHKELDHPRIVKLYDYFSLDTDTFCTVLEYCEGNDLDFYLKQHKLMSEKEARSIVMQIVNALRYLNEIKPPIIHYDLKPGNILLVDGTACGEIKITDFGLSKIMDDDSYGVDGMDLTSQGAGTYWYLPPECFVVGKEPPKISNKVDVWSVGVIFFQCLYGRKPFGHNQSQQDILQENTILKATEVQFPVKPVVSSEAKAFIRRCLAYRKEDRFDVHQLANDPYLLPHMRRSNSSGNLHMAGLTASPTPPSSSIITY
Method: FIG. 8A-FIG. 25 show further experiments into the present invention, with FIGS. 8A-8G show kinase assays, inhibitor screening, IC50 evaluation and competitive assays. Recombinant TLK1B purified to homogeneity (FIG. 8A) is active in kinase assays (FIG. 8B) and phosphorylates a specific Nek1 peptide (FIG. 8C). […] All experiments were conducted in triplicates. The DiscoverRx ADP Hunter™ (Eurofins DiscoverRx, Fremont, CA, US) Kit was used to measure the generation of ADP resulting from kinase phosphorylation of substrate.
Chemical synthesis of J54 and several different Phenothiazines and Protein expression and purification: Details were explained in section B of supplementary of material and methods. The full-length, 65 KDa recombinant human TLK1B (hTLK1B) for the in-vitro experiments was expressed and purified from bacteria as described earlier.
Results: A new PTH potent inhibitor of TLK1B. A few PTH antipsychotics were identified in a screen the inventors conducted from a compounds library as good inhibitors of TLK1. To find additional inhibitors, recombinant TLK1B was purified (FIG. 8A). The enzymatic activity was determined using the ADP-Hunter reagents and a Nek1 peptide containing the T141 target site. […] Several structurally similar compounds were synthesized as described in the Appendix (and see NMR and MS data FIGS. 10 and 11) and tested at 20 μM (FIGS. 8E and 8F). […] The inventors continued the inventors' characterization of J54.

LNCaP cells = test: Emergence of androgen insensitive (AI) colonies of LNCaP with bicalutamide; assay type: cell-based
recombinant TLK1B [2] = target: T1, recombinant TLK1B; test: High throughput screen with Rad9 peptide substrate / autokinase assay; assay type: biochemical; conditions: library screen
Method: FIGS. 5A and 5B show Inhibition of TLK1/1B autophosphorylation by PTH. […] 293T cells were incubated for 1 hour with PPH. TLK1 was immunoprecipitated, followed by auto-phosphorylation with γ-ATP^32. The blots were then probed with TLK1 antiserum.
Identification of TLK inhibitors. The inventors have screened the Prestwick Library, partially the ChemDiv, and two proprietary libraries (10,000 compounds) for inhibitors of TLK with a high throughput screen with recombinant TLK1B and a Rad9 peptide substrate. […] The inhibition of autokinase activity was confirmed by TCA-precipitable counts with γ32P-ATP (FIG. 5A).

456 human kinases = test: Kinome panel (KinomeScan-DiscoverX); assay type: binding
[3] = tested on: panel of cell lines, including RWPE1 and hTERT-HME1; test: Toxicity on a panel of cell lines without doxorubicin; assay type: cell-based; conditions: 15 μM, absence of doxorubicin
LNCaP xenografts = test: LNCaP xenograft model; assay type: in vivo, NOD/SCID mice; conditions: mouse, in vivo
Method: Treatment started 19 days after implantation when the tumors measure ˜200 mm^3. Two independent experiment with 5 mice per group were carried out. J54 and Bicalutamide was dissolved in DMSO and diluted in corn oil 1:10 and administered IP bi-weekly. Sectioning and processing of the tissues were carried out in the FWCC Histology Service, using automated processes and equipment to provide uniform and standardized results. Indirect labeling was with ABC Elite: RTU Vectastain Elite Reagent, Vector #PK-7100; DAB: ImmPact DAB, Vector #SK-4105. Light counterstaining was done with hematoxylin. […] Note the weak pNek1 stain in the tumor from mice treated with J54, in contrast to the increase seen with BIC.
LNCaP Xenograft Model and Immunohistochemistry (IHC): All animals used in this study were approved by LSUHSC IACUC and following ARRIVE guidelines. Male NOD/SCID mice (5 per group) were purchased from Jackson labs. LNCaP cells were injected as described earlier. Mice were treated IP bi-weekly with J54 (5 mg/kg body weight—dose estimation derived from pharmacokinetics study) and/or Bicalutamide (100 mg/kg).
The inventors sought to establish if the addition of J54 could suppress the resurgence of tumor growth of LNCaP xenografts and their latter conversion to CRPC. Following formation of sizeable tumors (˜200 mm^3), castration or anti-androgens arrest the progression of LNCaP xenografts for some time (2-3 weeks), while subsequently the tumors start growing again at an accelerated rate which is refractory to ADT (AI). Therefore, the inventors injected LNCaP cells in matrigel in both flanks of NOD-SCID mice, and then randomly assigned them to four treatment groups (n=5 per group×2 independent experiments), as shown in FIGS. 13A-13C. […] The inventors should also point out that the inventors treated the mice with J54 only bi-weekly due to the favorable pharmacokinetics, where maximal plasma concentration of 100 ng/ml ([…]) were reached 2 h after IP injection, and was still present at −6 ng/ml (6 μM) after 24 h (FIG. 18A-18C).

inhibition of TLK (recombinant TLK1B [2]) | Compound | toxicity [3] | further results
– | CN1c2ccccc2Sc2ccccc21 [J56, 10-methyl-10H-phenothiazine] | – | inhibition of TLK1B compared with standard (recombinant TLK1B [1]): more inhibitory than Staurosporin
strong inhibitors | CSc1ccc2c(c1)N(CCC1CCCCN1C)c1ccccc1S2 (stereo not shown) [THD, Thioridazine] | low toxicity | growth inhibition in androgen containing medium (FCS) (LNCaP cells; 3-9 μM THD): 50%; emergence of AI colonies (LNCaP cells; 3-9 μM THD with bicalutamide, three weeks): few or no AI colonies emerged; conversion of LNCaP cells to androgen independent growth (LNCaP cells; three weeks of culture with bicalutamide): Complete inhibition; specificity on kinome panel (456 human kinases): no other kinase (except TLK2) in the panel was inhibited
strong inhibitors | OCCN1CCN(CCCN2c3ccccc3Sc3ccc(Cl)cc32)CC1 [PPH, Perphenazine] | low toxicity | –
strong inhibitors | CN1CCN(CCCN2c3ccccc3Sc3ccc(C(F)(F)F)cc32)CC1 [TFP, Trifloroperazine] | low toxicity | –
– | CC(O)(CS(=O)(=O)c1ccc(F)cc1)C(=O)Nc1ccc(C#N)c(C(F)(F)F)c1 (stereo not shown) [BIC, Bicalutamide, reference compound] | – | lag before exponential growth following beginning of administration (LNCaP xenografts): 12 days
strong inhibitors | CN(C)CCCN1c2ccccc2Sc2ccccc21 [PMZ, Promazine] | – | –
